Results taken from patent publication US20030017565A1, “COMPOSITION AND METHOD FOR TREATING A POROUS ARTICLE AND USE THEREOF” (priority 1996, published 2003).

Assays:
Type in all cases: physicochemical
[1] = leaching of cypress blocks, peroxidase + alcohol oxidase (Example 7); settings: 5 U/ml peroxidase + 5 U/ml alcohol oxidase + 1% methanol
Description: The peroxidase used was obtained from horse radish (Type II, Sigma) and the alcohol oxidase used was obtained from Candida boidini (Boehringer Mannheim Biochemica).

[2] = leaching of Japan cedar blocks treated with LSA and chemical agents (Example 4); settings: 5% LSA; for Elution Rate (%) Chemical Agent: species measured as bracketed (Copper, Zinc, Nickel, Boron, H = hinokitiol), else the agent named
Experimental: For chemical agents having low solubilities, they were added to aqueous lignosulfonic acid solution after it was warmed to 60 to 90° C., and it was cooled at 25° C. after the chemical agents were suspended, dispersed, dissolved by Vortex-Mixer, […]
The amount of lignosulfonic acid which leached off was determined by measurement of the absorbance at 280 nm, and the amount of the chemical agent which leached off was determined by complex formation and spectrophotometry using PAN (1-(2-pyridylazo)-2-naphthol, Aldrich Chemical Company) or quinalizarin (Wako Pure Chemicals), separation, identification and determination, using HPLC or gas chromatography, or atomic absorption analysis were performed, followed by calculation of the amount of the chemical agents which was eluted. When the chemical agents had absorption at 280 nm, the concentration of lignosulfonic acid was calculated by measuring the absorbance at 280 nm of the chemical agents of which the concentration was measured by the above-described method and subtracting an influence by the chemical agent from the absorbance at 280 nm of the liquid which was eluted. The amounts of the chemical agents and lignosulfonic acid which were eluted were calculated and compared taking the amounts of them injected upon the impregnation treatment as 100%.

[3] = leaching of cypress blocks, bilirubin oxidase (Example 6); settings: for Elution Rate (%) LSA: pH 8.1-8.8; for Elution Rate (%) Chemical Agent: pH 8.1-8.8, species as bracketed (Copper, Zinc, Nickel, Boron, H = hinokitiol), else the agent named
Description: Taking the amounts of the lignosulfonic acid (LSA) and chemical agent as injected upon the impregnation treatment as 100%, respectively, the amounts of the substances which were eluted were compared.

[4] = leaching of Japan cedar blocks, treating mixture with tung oil (Example 8); settings: Example 1 enzyme, 5% LSA, 2,000 ppm tung oil; for Elution Rate (%) LSA: pH 8.1-8.5; for Elution Rate (%) Chemical Agent: pH 8.1-8.5, species as bracketed (Copper, Zinc, Nickel, H = hinokitiol), else the agent named
Experimental: The amounts of the chemical agents and lignosulfonic acid which were eluted were calculated and compared taking the amounts of them injected upon the impregnation treatment as 100%.

[5] = leaching of Japan cedar blocks, powdery treatment agent stored 2 weeks (Example 21); settings: 5 g in 100 ml; for Elution Rate (%) LSA: powdery agent (10 mg enzyme + 10 g LSA + agent) stored 2 weeks, Japan cedar; for Elution Rate (%) Chemical Agent: powdery agent stored 2 weeks, species as bracketed (Copper, Zinc, Nickel, Boron, H = hinokitiol), else the agent named
Experimental: 10 mg of the freeze-dried product described in Example 1, 10 g of commercially available lignosulfonic acid (LSA) powder, and various chemical agents were mixed well in a mortar to obtain a treatment agent for treating a porous article. If desired, a small amount of sodium carbonate powder was added to the resulting powder and mixed well, so that when a 5% aqueous solution was prepared from the above-described powder the solution could have a pH of 8.0 to 9.0. Then, after the powdery treatment agent was left to stand at room temperature for 2 weeks, 5 g of the powder was dissolved in 100 ml of deionized water to prepare a solution for treating a porous article. Using this solution, Japan cedar wood blocks were subjected to reduced pressure impregnation, drying/macromolecularization reaction, and leaching in the same manner as in Examples 3 and 4. Taking the amounts of lignosulfonic acid and chemical agents injected upon the impregnation treatment as 100%, respectively, the amounts of them which was eluted were compared. The results are shown in Table 12, from which it can be seen that the powdery treatment agent enables effective treatment of porous articles.

[6] = leaching of Japan cedar blocks, liquid treatment agent stored 2 weeks (Example 21); settings: diluted 10-fold; for Elution Rate (%) LSA: liquid agent (6 g powder in 12 ml) stored airtight 2 weeks, Japan cedar; for Elution Rate (%) Chemical Agent: liquid agent stored airtight 2 weeks, species as bracketed (Copper, Zinc, Nickel, Boron, H = hinokitiol), else the agent named
Experimental: Further, 6 g of the powdery treatment agent obtained in the same manner as described above was dissolved in 12 ml of deionized water to obtain a liquid treatment agent for a porous article. The liquid treatment agent was transferred into a 20 ml screw capped test tube. After the test tube stand airtightly at room temperature for 2 weeks, the liquid treatment agent was diluted 10-fold with deionized water to prepare a solution for treating a porous article. Japan cedar wood blocks were subjected to reduced pressure impregnation treatment with the solution thus obtained, drying/macromolecularization reaction, and elution treatment in the same manner as in Examples 3 and 4. The amounts of the lignosulfonic acid which were eluted were calculated and compared taking the amounts of it injected upon the impregnation treatment as 100%.

[7] = in the absence of enzyme (comparison), pH 8.1-8.8
[8] = in the presence of enzyme, Japan cedar, pH of treating agent 8.1-8.8
[9] = in the presence of enzyme, pH 8.1-8.8

With `OB(O)O` [1% Boric acid, Boric acid] the “Elution Rate (%) LSA” value ([1]; pH 8.1-8.8) was 5.6%, the “Elution Rate (%) Chemical Agent” value ([1]; pH 8.1-8.8, species as bracketed (Copper, Zinc, Boron, H = hinokitiol), else the agent named) was 27.5% and the “Elution Rate (%) LSA” value [2, 7] was 22.1%. For the same compound, the “Elution Rate (%) Chemical Agent” value [2, 7] was 32.3%, the “Elution Rate (%) LSA” value [2, 8] was 0.7% and the “Elution Rate (%) Chemical Agent” value [2, 9] was 25.1%. For the same compound, the “Elution Rate (%) LSA” value [3] was 3.7% and the “Elution Rate (%) Chemical Agent” value [3] was 26.2%.
For `Cc1cc2cccc(C)c2cc1C` [10 ppm 2,3,5-Trimethylnaphthalene, 2,3,5-Trimethylnaphthalene], the “Elution Rate (%) LSA” value [2, 7] was 23.3%, the “Elution Rate (%) Chemical Agent” value [2, 7] was 5.6% and the “Elution Rate (%) LSA” value [2, 8] was 0.8%. For the same compound, the “Elution Rate (%) Chemical Agent” value [2, 9] was 0.1%, the “Elution Rate (%) LSA” value [3] was 2.4% and the “Elution Rate (%) Chemical Agent” value [3] was 0.3%.
For `C=CCN=C=S` [100 ppm Allyl isothiocyanate, Allyl isothiocyanate], the “Elution Rate (%) LSA” value [4] was 2.1%, the “Elution Rate (%) Chemical Agent” value [4] was 1.3% and the “Elution Rate (%) LSA” value [2, 7] was 26.3%. The “Elution Rate (%) Chemical Agent” value [2, 7] was 7.5%, the “Elution Rate (%) LSA” value [2, 8] was 3.5% and the “Elution Rate (%) Chemical Agent” value [2, 9] was 2.2%. For the same compound, the “Elution Rate (%) LSA” value [3] was 8.5% and the “Elution Rate (%) Chemical Agent” value [3] was 7.8%.
In the case of `O=CC=Cc1ccccc1` [100 ppm Cinnamaldehyde, Cinnamaldehyde], the “Elution Rate (%) LSA” value [4] is reported as 1.9%, the “Elution Rate (%) Chemical Agent” value [4] is reported as 0.2% and the “Elution Rate (%) LSA” value [2, 7] is reported as 22.1%. For the same compound, the “Elution Rate (%) Chemical Agent” value [2, 7] was 8.5%, the “Elution Rate (%) LSA” value [2, 8] was 1.5% and the “Elution Rate (%) Chemical Agent” value [2, 9] was 0.7%. For the same compound, the “Elution Rate (%) LSA” value [3] was 5.4% and the “Elution Rate (%) Chemical Agent” value [3] was 2.1%.
In the case of `CC(C)=CCCC(C)=CC=O` [100 ppm citral, citral], the “Elution Rate (%) LSA” value [2, 7] is reported as 23.4%, the “Elution Rate (%) Chemical Agent” value [2, 7] is reported as 7.1% and the “Elution Rate (%) LSA” value [2, 8] is reported as 2.5%. For the same compound, the “Elution Rate (%) Chemical Agent” value [2, 9] was 1.8%, the “Elution Rate (%) LSA” value [3] was 7.9% and the “Elution Rate (%) Chemical Agent” value [3] was 6.0%.
With `CC(C)=CCCC(C)CCO` (stereo not drawn) [100 ppm β-citronellol, β-citronellol] the “Elution Rate (%) LSA” value [4] was 1.7%, the “Elution Rate (%) Chemical Agent” value [4] was 0.2% and the “Elution Rate (%) LSA” value [2, 7] was 25.4%. The “Elution Rate (%) Chemical Agent” value [2, 7] was 6.8%, the “Elution Rate (%) LSA” value [2, 8] was 0.7% and the “Elution Rate (%) Chemical Agent” value [2, 9] was 0.4%. The “Elution Rate (%) LSA” value [3] was 2.9% and the “Elution Rate (%) Chemical Agent” value [3] was 0.8%.
With `Nc1ccccc1N` [200 ppm o-Phenylenediamine, o-Phenylenediamine] the “Elution Rate (%) LSA” value [2, 7] was 16.5%, the “Elution Rate (%) Chemical Agent” value [2, 7] was 5.3% and the “Elution Rate (%) LSA” value [2, 8] was 1.0%. For the same compound, the “Elution Rate (%) Chemical Agent” value [2, 9] was 0.2%, the “Elution Rate (%) LSA” value [3] was 2.5% and the “Elution Rate (%) Chemical Agent” value [3] was 0.6%.
With `CC1=CC[C@@H]2C[C@H]1C2(C)C` [500 ppm (1R)-(+)-α-pinene, (1R)-(+)-α-pinene] the “Elution Rate (%) LSA” value [4] was 0.7%, the “Elution Rate (%) Chemical Agent” value [4] was 0.2% and the “Elution Rate (%) LSA” value [2, 7] was 22.8%. The “Elution Rate (%) Chemical Agent” value [2, 7] was 7.3%, the “Elution Rate (%) LSA” value [2, 8] was 0.6% and the “Elution Rate (%) Chemical Agent” value [2, 9] was 0.3%. The “Elution Rate (%) LSA” value [3] was 1.0% and the “Elution Rate (%) Chemical Agent” value [3] was 1.2%.
For `CC1CCC(C(C)C)C(O)C1` [500 ppm (1R,2S,5R)-(−)-menthol, (1R,2S,5R)-(−)-menthol], the “Elution Rate (%) LSA” value [4] was 0.6%, the “Elution Rate (%) Chemical Agent” value [4] was 0.4% and the “Elution Rate (%) LSA” value [2, 7] was 27.4%. For the same compound, the “Elution Rate (%) Chemical Agent” value [2, 7] was 7.5%, the “Elution Rate (%) LSA” value [2, 8] was 0.5% and the “Elution Rate (%) Chemical Agent” value [2, 9] was 0.2%. The “Elution Rate (%) LSA” value [3] was 2.8% and the “Elution Rate (%) Chemical Agent” value [3] was 1.3%.
In the case of `CC12CCC(CC1)C(C)(C)O2` [500 ppm cineole, cineole], the “Elution Rate (%) LSA” value [4] is reported as 0.5%, the “Elution Rate (%) Chemical Agent” value [4] is reported as 0.2% and the “Elution Rate (%) LSA” value [2, 7] is reported as 25.7%. For the same compound, the “Elution Rate (%) Chemical Agent” value [2, 7] was 6.2%, the “Elution Rate (%) LSA” value [2, 8] was 0.5% and the “Elution Rate (%) Chemical Agent” value [2, 9] was 0.2%. For the same compound, the “Elution Rate (%) LSA” value [3] was 0.8% and the “Elution Rate (%) Chemical Agent” value [3] was 0.6%.
With `CC1=CCC(C(C)(C)O)CC1` (stereo not drawn) [500 ppm α-terpineol, α-terpineol] the “Elution Rate (%) LSA” value [4] was 0.6%, the “Elution Rate (%) Chemical Agent” value [4] was 0.3% and the “Elution Rate (%) LSA” value [2, 7] was 24.5%. The “Elution Rate (%) Chemical Agent” value [2, 7] was 9.1%, the “Elution Rate (%) LSA” value [2, 8] was 0.7% and the “Elution Rate (%) Chemical Agent” value [2, 9] was 0.6%. The “Elution Rate (%) LSA” value [3] was 1.1% and the “Elution Rate (%) Chemical Agent” value [3] was 1.4%.
For `OB(O)O` [Boric acid (2 g), Boric acid], the “Elution Rate (%) LSA” value [5] was 0.6%, the “Elution Rate (%) Chemical Agent” value [5] was 18.1% and the “Elution Rate (%) LSA” value [6] was 0.6%.
With `CC(C)c1cccc(=O)c(O)c1` [Hinokitiol (0.2 g), Hinokitiol] the “Elution Rate (%) LSA” value [5] was 0.6%, the “Elution Rate (%) Chemical Agent” value [5] was 3.0% and the “Elution Rate (%) LSA” value [6] was 0.4%. For the same compound, the “Elution Rate (%) Chemical Agent” value [6] was 2.5%.
With `O=C(OC[C@H]1O[C@@H](OC(=O)c2cc(O)c(O)c(OC(=O)c3cc(O)c(O)c(O)c3)c2)[C@H](OC(=O)c2cc(O)c(O)c(OC(=O)c3cc(O)c(O)c(O)c3)c2)[C@@H](OC(=O)c2cc(O)c(O)c(OC(=O)c3cc(O)c(O)c(O)c3)c2)[C@@H]1OC(=O)c1cc(O)c(O)c(OC(=O)c2cc(O)c(O)c(O)c2)c1)c1cc(O)c(O)c(OC(=O)c2cc(O)c(O)c(O)c2)c1` [Tannic acid (0.1 g), Tannic acid] the “Elution Rate (%) LSA” value [5] was 3.6%, the “Elution Rate (%) Chemical Agent” value [5] was 4.2% and the “Elution Rate (%) LSA” value [6] was 3.7%. For the same compound, the “Elution Rate (%) Chemical Agent” value [6] was 4.6%.
In the case of `Nc1ccccc1N` [o-Phenylenediamine (0.04 g), o-Phenylenediamine], the “Elution Rate (%) LSA” value [5] is reported as 1.5%, the “Elution Rate (%) Chemical Agent” value [5] is reported as 0.4% and the “Elution Rate (%) LSA” value [6] is reported as 2.1%. For the same compound, the “Elution Rate (%) Chemical Agent” value [6] was 0.8%.
In the case of “(+)-Catechin.H2O [(+)-Catechin.H2O (0.2 g)]”, the “Elution Rate (%) LSA” value [5] is reported as 2.9%, the “Elution Rate (%) Chemical Agent” value [5] is reported as 3.2% and the “Elution Rate (%) LSA” value [6] is reported as 2.0%. The “Elution Rate (%) Chemical Agent” value [6] was 3.4%.
